Key:
human macrophages = test: PC synthesis in macrophage cultures; assay type: cell-based; conditions: 500 μM CBE for 6 days
Procedure: Human macrophages were obtained from healthy donors. Blood samples were immediately diluted 2.5 times with PBS pH 7.4 and layered on 3 ml Ficoll Histopaque 1.077 in conical tubes. The tubes were then centrifuged at 400 g for 25 min. The peripheral blood mononuclear leukocyte (PBL) band at the PBS-plasma/Ficoll interface was taken for further analyses. PBL were washed twice with PBS pH 7.4, and resuspended in 5 ml of RPMI 1640 containing 10% fetal calf serum. An aliquot of the cell suspension was used to assess cell viability using the exclusion trypan-blue test. The cell suspension was adjusted to a final concentration of 6*10^6 cells/ml and incubated for 3 hours at 37° C. in a plastic Petri dish (Falcon). Non adherent cell suspension (mononuclear leukocytes) was then transferred to a culture flask while the adherent cells (mainly macrophages) were cultured separately in RPMI 1640 supplemented with 10% fetal calf serum, 2 mM L-glutamine, 100 U/ml penicillin and 0.1 mg/ml streptomycin. The cells were cultured in separate cultures with or without 500 μM CBE for 5 days; on day 5, PMA was added to the macrophage suspension (final concentration: 10 ng/ml) to allow full differentiation. […] The cells were thoroughly washed with non-radioactive medium and lipids were further extracted and analyzed as described herein above. […]

rat hippocampal neurons = test: [14C]PC degradation and acetolysis of [14C]PC in neurons; assay type: cell-based; conditions: CBE-treated neurons
Procedure: In some cases, acetolysis was performed to determine the amount of [^14C]-radioactivity that remained in the [^14C]methyl choline head group moiety of [^14C]PC after 48 h labeling with [^14C]methyl choline. [^14C]PC was removed from TLC plates by scraping, eluted from the silica using chloroform/methanol/acetic acid/water (50:39:1:10, v/v/v/v), and subjected to acetolysis. Briefly, 2 ml of acetic anhydride/acetic acid (2:3, v/v) was added to the tubes containing [^14C]PC, the mixture heated at 140° C. for 16 h, 200 μl of water added to each tube, dried under N2, and separated into aqueous and organic phases. […] [^14C]-Lipids and the [^14C]-head group polar moieties were analyzed and quantified as above.
Since metabolic labeling with [^14C]methyl choline was performed for up to 48 h (due to the relatively low amount of neurons available), we analyzed whether the increase in [^14C]methyl choline levels was due to changes in the rate of [^14C]PC synthesis or in the rate of [^14C]PC degradation. Neurons were incubated with [^14C]methyl choline to metabolically label [^14C]PC, and the rate of [^14C]PC degradation measured. No difference in the rate of degradation between control and CBE-treated neurons was detected (FIG. 3). […]

[1] = tested on: CTP:phosphocholine cytidylyltransferase (CCT); test: CCT assay in homogenates of treated hippocampal neurons; assay type: cell-based, rat; conditions: neurons incubated with 500 μM CBE for 4- or 8-days
Procedure: Neurons from individual cover slips were washed twice with ice-cold phosphate-buffered saline, and cells removed by scraping into 300 μl of buffer containing 50 mM imidazole, 2 mM EDTA, 150 mM KCl, 6 mM ADP, 0.2 mM phenylmethylsulfonylfluoride, 1 μg/ml pepstatin and 1 μg/ml leupeptin. After brief sonication, an aliquot was removed for DNA determination and 100 μl was used for the CCT assay.
CCT was assayed as described (Weinhold P A and Feldman D A. 1992. Choline-phosphate cytidylyltransferase. Methods Enzymol. 209, 248-258), with some minor modifications. The assay was performed in a final volume of 200 μl containing 1.6 mM phosphorylcholine/0.25 μCi [^14C]methyl phosphorylcholine, 3 mM CTP, 12 mM magnesium acetate, and DOPC liposomes with or without oleic acid and GicCer or GalCer, as indicated in the figure legends. Liposomes were prepared by sonicating resuspended lipids in the assay buffer at room temperature for 3 min using a sonicator (Sonics & Materials Inc., Newtown, Conn.) fitted with a micro-tip probe set to 750 W output, using 25% of the maximal amplitude and with pulsations of 9.0 sec every 9.2 sec, which gave a translucent liposome preparation with no precipitates. The final concentration of DOPC and oleic acid in the liposomes was 500 μM each. […]

## O[C@H]1[C@H](O)[C@@H](O)[C@@H]2O[C@@H]2[C@@H]1O (racemic) [CBE, conduritol-B-epoxide]
Human macrophages
  [14C]-PC in treated macrophages: dramatic increase
Rat hippocampal neurons
  rate of [14C]PC degradation versus control: No difference
[1]
  elevation of CCT activity: 2-3 fold

Reference: patent US7429460B2, “Methods of screening for inhibitors of phospholipid synthesis related to glycolipid-storage diseases” (Yeda Research and Development Co., Ltd., priority 2003, dated 2008)
